Results as given in US11053230B2, “3-hydroxy-imidazolidin-4-one compounds as inhibitors of indoleamine 2,3-dioxygenase” (Netherlands Translational Research Center B.V., priority 2017, dated 2021).
Where “and” joins values, the source holds several entries; their conditions need not be identical. Identical values can stand only once.

Target: T1, IDO1 (Homo sapiens, UniProt P14902)
T1 construct: Recombinant full-length IDO1 (Seegers, N., et al.) and all other assay components were diluted in IDO1 reaction buffer; made in house
Experiment: Biochemical IDO1 assay (NFK GreenScreen)
Settings: for IC50: NFK GreenScreen, 25 nM IDO1, 100 μM L-tryptophan, read-out: IC50, inhibitory potency on IDO1; for relative activity of the separated isomers: stated in the synthesis examples, assay not named
Procedure: Inhibition of IDO1 activity can be measured by determining the enzymatic conversion of L-tryptophan into N-formylkynurenine (NFK) in a reaction mixture containing IDO1 and test compound. The formation of NFK can be detected directly by, for instance, high-performance liquid chromatography (HPLC) methods, or by intrinsic fluorescence.
Compounds were serially diluted in dimethylsulfoxide (DMSO) and finally in IDO1 reaction buffer, consisting of 50 mM NaH2PO4, pH7.0, supplemented with 0.05% Tween-20 (cat. No. P7949; Sigma Aldrich) and 1% glycerol. Recombinant full-length IDO1 (Seegers, N., et al.) and all other assay components were diluted in IDO1 reaction buffer. […] Subsequently, 10 μl of 0.4 mM of the substrate L-tryptophan was added, i.e., the final concentration of L-tryptophan was 100 μM. The DMSO concentration in the assay was 0.3%. […] Incubation was continued for 60 min at room temperature. Then, 10 μl of NFK Green™ (NTRC, Oss, The Netherlands) was added, the plate was sealed, and the reaction was developed for 3 hours at 37° C. To determine the production of N-formyl kynurenine (NFK), the seal was removed and fluorescence was read on an EnVision multimode reader (Perkin Elmer, Waltham, Mass., USA). IC50 were calculated using XLfit™ software (ID Business Solutions, Ltd., Surrey, U.K.).

T1 sequence (P14902 whole entry): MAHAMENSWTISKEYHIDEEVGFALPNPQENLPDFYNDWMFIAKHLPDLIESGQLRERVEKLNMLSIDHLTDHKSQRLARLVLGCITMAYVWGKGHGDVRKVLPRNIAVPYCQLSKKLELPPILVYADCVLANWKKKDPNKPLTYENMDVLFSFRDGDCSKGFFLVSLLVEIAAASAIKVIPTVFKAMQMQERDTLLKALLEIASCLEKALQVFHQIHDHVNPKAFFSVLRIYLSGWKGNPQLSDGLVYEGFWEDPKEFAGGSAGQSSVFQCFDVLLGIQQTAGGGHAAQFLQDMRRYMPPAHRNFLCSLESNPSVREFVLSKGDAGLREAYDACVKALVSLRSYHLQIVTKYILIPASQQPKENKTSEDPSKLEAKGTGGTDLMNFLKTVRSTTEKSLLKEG

| IC50 | relative activity of the separated isomers | Structure (SMILES) |
| --- | --- | --- |
| ≤ 1 µM | – | CC(C)C#Cc1cc(F)c(C(=O)N2CC(=O)N(O)C2c2cc(Br)cs2)c(F)c1 (centres unmarked) [Example 50, 2-(4-Bromo-2-thienyl)-1-[2,6-difluoro-4-(3-methylbut-1-ynyl)benzoyl]-3-hydroxy-imidazolidin-4-one] |
| ≤ 1 µM | – | NCC#Cc1cc(F)c(C(=O)N2CC(=O)N(O)C2c2cc(Br)cs2)c(F)c1 (centres unmarked) [Example 79, 1-[4-(3-Aminoprop-1-ynyl)-2,6-difluoro-benzoyl]-2-(4-bromo-2-thienyl)-3-hydroxy-imidazolidin-4-one] |
| ≤ 1 µM | – | Cn1cc(-c2cc(F)c(C(=O)N3CC(=O)N(O)C3c3cc(Br)cs3)c(F)c2)cn1 (centres unmarked) [Example 86, 2-(4-Bromo-2-thienyl)-1-[2,6-difluoro-4-(1-methylpyrazol-4-yl)benzoyl]-3-hydroxy-imidazolidin-4-one] |
| – | most active isomer | O=C1CN(C(=O)c2c(F)cccc2F)C(c2cc(Br)c(F)s2)N1O (single isomer, unassigned) [Example 110a, 2-(4-Bromo-5-fluoro-2-thienyl)-1-(2,6-difluorobenzoyl)-3-hydroxy-imidazolidin-4-one] |
| ≤ 1 µM | – | O=C1CN(Cc2ccccc2F)C(c2csc(Br)c2)N1O (centres unmarked) [Example 42, 2-(5-Bromo-3-thienyl)-1-[(2-fluorophenyl)methyl]-3-hydroxy-imidazolidin-4-one] |
| ≤ 1 µM | – | CC(C)C=Cc1cc(F)c(C(=O)N2CC(=O)N(O)C2c2cc(Br)cs2)c(F)c1 (centres unmarked) [Example 94, 2-(4-Bromo-2-thienyl)-1-[2,6-difluoro-4-[3-methylbut-1-enyl]benzoyl]-3-hydroxy-imidazolidin-4-one] |
| ≤ 1 µM | – | O=C1CN(C(=O)c2c(F)cc(C#CC3CC3)cc2F)C(c2cc(Br)cs2)N1O (centres unmarked) [Example 39, 2-(4-Bromo-2-thienyl)-1-[4-(2-cyclopropylethynyl)-2,6-difluoro-benzoyl]-3-hydroxy-imidazolidin-4-one] |
| ≤ 5 µM and 1 to 5 µM | – | O=C1CN(C(=O)c2c(F)cccc2C(F)(F)F)C(c2cc(Br)cs2)N1O (centres unmarked) [Example 11, 2-(4-Bromo-2-thienyl)-1-[2-fluoro-6-(trifluoromethyl)benzoyl]-3-hydroxy-imidazolidin-4-one] |
| ≤ 1 µM | most active isomer | O=C1CN(Cc2c(F)cccc2F)C(c2cc(Br)cs2)N1O (single isomer, unassigned) [Example 45b, 2-(4-Bromo-2-thienyl)-1-[(2,6-difluorophenyl)methyl]-3-hydroxy-imidazolidin-4-one] |
| ≤ 1 µM | – | Nc1ccc(F)c(C(=O)N2CC(=O)N(O)C2c2cc(Br)cs2)c1F (centres unmarked) [Example 105, 1-(3-Amino-2,6-difluoro-benzoyl)-2-(4-bromo-2-thienyl)-3-hydroxy-imidazolidin-4-one] |
| ≤ 1 µM | – | Cc1cccc(F)c1C(=O)N1CC(=O)N(O)C1c1cc(Br)cs1 (centres unmarked) [Example 65, 2-(4-Bromo-2-thienyl)-1-(2-fluoro-6-methyl-benzoyl)-3-hydroxy-imidazolidin-4-one] |
| – | less active isomer | C[C@@H](c1ccccc1)N1CC(=O)N(O)C1c1ccc(Br)s1 (single isomer, unassigned) [Example 120a] |
| ≤ 1 µM | – | O=C1CN(C(=O)c2c(F)cccc2F)C(c2cc(Br)c(F)s2)N1O (centres unmarked) [Example 37, 2-(4-Bromo-5-fluoro-2-thienyl)-1-(2,6-difluorobenzoyl)-3-hydroxy-imidazolidin-4-one] |
| ≤ 1 µM | – | N#Cc1cc(F)c(C(=O)N2CC(=O)N(O)C2c2cc(Br)cs2)c(F)c1 (centres unmarked) [Example 117, 4-[2-(4-Bromo-2-thienyl)-3-hydroxy-4-oxo-imidazolidine-1-carbonyl]-3,5-difluoro-benzonitrile] |
| ≤ 5 µM and 1 to 5 µM | less active isomer | O=C1CN(C(=O)c2c(F)cccc2F)C(c2ccc(Br)s2)N1O (single isomer, unassigned) [Example 49a, 2-(5-Bromo-2-thienyl)-1-(2,6-difluorobenzoyl)-3-hydroxy-imidazolidin-4-one] |
